Tested on: streptozotocin (STZ)-induced diabetic rats
Assay: Mechanical thresholds in streptozotocin (STZ)-induced diabetic rats
Type: in vivo, rat
Experimental: Experiments were conducted to determine the effect of Compound 1 in streptozotocin (STZ)-induced diabetic rats. In the first experiment, after obtaining mechanical threshold baselines, STZ (50 mg/kg IV) was administered (Day −7). Two days later, blood glucose levels were measured and animals that were hyperglycemic (>250 mg/dL) continued in the study. On Day 0 the baseline for mechanical thresholds prior to dosing with test articles was established for the rats. Compound 1 (10, 30, and 100 mg/kg PO), gabapentin (100 mg/kg PO) or vehicle was then administered daily for 5 days. On Day 0 mechanical thresholds were obtained at 1, 3, and 6 h post-dose. On Day 1 mechanical thresholds were measured immediately prior to dosing and then 3 h post-dose. The same regimen was followed on Day 3.
In a subsequent study, the same STZ paradigm was followed. However, in addition to the 100 mg/kg Compound 1 group, two additional cohorts received the Compound 1 100 mg/kg dose split into two or three doses per day with 50 mg/kg BID and 33 mg/kg TID. In addition to the gabapentin (100 mg/kg PO) group, a separate cohort received duloxetine (30 mg/kg PO). Additionally, in this study mechanical threshold testing was implemented every day immediately prior to dosing and 2 h post-dose for 7 days.

[1] = subsequent study, 7 days, Compound 1 100 mg/kg QD, 50 mg/kg BID, 33 mg/kg TID, gabapentin 100 mg/kg PO, duloxetine 30 mg/kg PO

Compound | reversal of allodynia (mechanical threshold) [1] | reversal of allodynia (mechanical threshold) (first experiment, Compound 1 10, 30, 100 mg/kg PO, gabapentin 100 mg/kg PO daily, Day 0 (gabapentin: 1 h post-dose on Day 0 and all time points thereafter))
CNCC[C@H](Oc1cccc2ccccc12)c1cccs1 [duloxetine, reference compound] | required successive doses for appreciable activity | –
NCC1(CC(=O)O)CCCCC1 [gabapentin, reference compound] | robustly reversed the allodynia throughout the study | significant reversal of allodynia

— patent publication US20200246317A1, “METHODS OF TREATING DIABETIC NEUROPATHY WITH A THIAZOLINE ANTI-HYPERALGESIC AGENT” (CERSCI THERAPEUTICS, INC., priority 2019, published 2020)
